{"source": "paper PMC3265452", "about": "(PLoS Neglected Tropical Diseases, 2012)", "note": "Counter-ions that a name gives are not always drawn."}
{"molecular_target": "AaDOP2 (Aedes aegypti, UniProt H6D5H2)", "sequence (H6D5H2 1-476)": "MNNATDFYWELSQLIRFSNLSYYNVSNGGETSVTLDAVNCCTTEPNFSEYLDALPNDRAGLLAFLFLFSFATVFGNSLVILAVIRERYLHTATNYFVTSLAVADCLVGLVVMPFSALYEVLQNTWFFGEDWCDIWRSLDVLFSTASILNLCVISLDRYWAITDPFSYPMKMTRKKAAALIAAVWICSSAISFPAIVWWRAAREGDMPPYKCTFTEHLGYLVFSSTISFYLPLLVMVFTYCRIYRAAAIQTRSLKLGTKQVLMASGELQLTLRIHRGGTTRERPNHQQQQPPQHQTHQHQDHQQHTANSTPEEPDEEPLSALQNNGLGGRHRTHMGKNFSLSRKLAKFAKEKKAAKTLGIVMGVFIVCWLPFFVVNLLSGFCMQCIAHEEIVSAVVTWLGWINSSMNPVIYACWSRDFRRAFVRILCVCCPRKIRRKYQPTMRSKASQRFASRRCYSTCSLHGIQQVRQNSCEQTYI", "assay": "AaDOP2 antagonist screen of the LOPAC1280 library (HEK-CRELuc-Aadop2 cells, luminescence)", "type": "cell-based", "details": "not given"}
{"smiles": "Cc1cn[nH]c1.Cl", "note": "[Compound 737, 4-Methylpyrazole hydrochloride]", "Compound effect (percent receptor signaling in presence of test compound, relative lux units relative to the SCH23390 control)": 111}
{"smiles": "COC(=O)Nc1nc2ccc(C(=O)c3cccs3)cc2[nH]1", "note": "[Compound 738, Nocodazole]", "Compound effect (percent receptor signaling in presence of test compound, relative lux units relative to the SCH23390 control)": 89}
{"smiles": "CNCCc1c[nH]c2ccc(O)cc12.O=C(O)C(=O)O", "note": "[Compound 739, N-omega-Methyl-5-hydroxytryptamine oxalate salt]", "Compound effect (percent receptor signaling in presence of test compound, relative lux units relative to the SCH23390 control)": 115}
{"smiles": "C#CCN1C(C)=C(C(=O)OC)C(c2cccc([N+](=O)[O-])c2)C(C(=O)OCC)=C1C", "note": "(stereo not shown) [Compound 741, MRS 1845]", "Compound effect (percent receptor signaling in presence of test compound, relative lux units relative to the SCH23390 control)": 101}
{"smiles": "CCCOC(=O)c1c(-c2ccccc2)nc(CC)c(C(=O)SCC)c1CCC", "note": "[Compound 743, MRS 1523]", "Compound effect (percent receptor signaling in presence of test compound, relative lux units relative to the SCH23390 control)": 101}
{"smiles": "N[C@@H](Cc1ccc(N(CCCl)CCCl)cc1)C(=O)O", "note": "[Compound 744, Melphalan]", "Compound effect (percent receptor signaling in presence of test compound, relative lux units relative to the SCH23390 control)": 102}
{"smiles": "COc1ccc2[nH]cc(CCN(C)C)c2c1.O=C(O)C(=O)O", "note": "[Compound 745, 5-Methoxy DMT oxalate]", "Compound effect (percent receptor signaling in presence of test compound, relative lux units relative to the SCH23390 control)": 104}
{"smiles": "CC[C@H](C)C(=O)O[C@H]1CCC=C2C=C[C@H](C)[C@H](CC[C@@H]3C[C@@H](O)CC(=O)O3)[C@H]21", "note": "[Compound 748, Mevastatin]", "Compound effect (percent receptor signaling in presence of test compound, relative lux units relative to the SCH23390 control)": 106}
{"smiles": "COCc1nc2c([nH]1)c(=O)n(C)c(=O)n2CC(C)C", "note": "[Compound 749, 8-Methoxymethyl-3-isobutyl-1-methylxanthine]", "Compound effect (percent receptor signaling in presence of test compound, relative lux units relative to the SCH23390 control)": 107}
{"smiles": "CC(C)c1ccc2c(c1)c(SC(C)(C)C)c(CC(C)(C)C(=O)O)n2Cc1ccc(Cl)cc1", "note": "[Compound 750, MK-886]", "Compound effect (percent receptor signaling in presence of test compound, relative lux units relative to the SCH23390 control)": 65}
{"smiles": "CC[C@@H](CO)NC(=O)[C@@H]1C=C2c3cccc4[nH]cc(c34)C[C@H]2N(C)C1", "note": "[Compound 752, Methylergonovine maleate]", "Compound effect (percent receptor signaling in presence of test compound, relative lux units relative to the SCH23390 control)": 107}
{"smiles": "CCOC(=O)[N-]c1cn(N2CCOCC2)n[o+]1", "note": "[Compound 753, Molsidomine]", "Compound effect (percent receptor signaling in presence of test compound, relative lux units relative to the SCH23390 control)": 98}
{"smiles": "Cc1nnc2ccc(-c3cccc(C(F)(F)F)c3)nn12", "note": "[Compound 754, 3-Methyl-6-(3-[trifluoromethyl]phenyl)-1,2,4-triazolo[4,3-b]pyridazine]", "Compound effect (percent receptor signaling in presence of test compound, relative lux units relative to the SCH23390 control)": 87}
{"smiles": "NC(=O)c1ncn([C@@H]2O[C@H](CO)[C@@H](O)[C@H]2O)c1O", "note": "[Compound 755, Mizoribine]", "Compound effect (percent receptor signaling in presence of test compound, relative lux units relative to the SCH23390 control)": 94}
{"molecular_target": "AaDOP2 (Aedes aegypti, UniProt H6D5H2)", "assay": "AaDOP2 antagonist screen of the LOPAC1280 library (HEK-CRELuc-Aadop2 cells, luminescence)", "type": "cell-based", "details": "10 µM compound, 300 nM dopamine, 2 hr; hit = compound effect <20", "units": {"Compound effect (percent receptor signaling in presence of test compound, relative lux units relative to the SCH23390 control)": "%"}}
{"smiles": "COc1ccc2cc([C@H](C)C(=O)[O-])ccc2c1.[Na+]", "note": "[Compound 736, (-)-Naproxen sodium]", "Compound effect (percent receptor signaling in presence of test compound, relative lux units relative to the SCH23390 control)": 105}
{"smiles": "COc1nc(C)nc(Cl)c1NC1=NCCN1.Cl", "note": "[Compound 740, Moxonidine hydrochloride]", "Compound effect (percent receptor signaling in presence of test compound, relative lux units relative to the SCH23390 control)": 94}
{"smiles": "CN1C[C@H](O)[C@@H](O)[C@H](O)[C@H]1CO", "note": "[Compound 742, N-Methyl-1-deoxynojirimycin]", "Compound effect (percent receptor signaling in presence of test compound, relative lux units relative to the SCH23390 control)": 101}
{"smiles": "CC(C)NCC(O)c1cc(O)cc(O)c1.CC(C)NCC(O)c1cc(O)cc(O)c1.O=S(=O)(O)O", "note": "(stereo not shown) [Compound 746, Metaproterenol hemisulfate]", "Compound effect (percent receptor signaling in presence of test compound, relative lux units relative to the SCH23390 control)": 111}
{"smiles": "Cc1cccc(C)c1OCC(C)N.Cl", "note": "(stereo not shown) [Compound 751, Mexiletene hydrochloride]", "Compound effect (percent receptor signaling in presence of test compound, relative lux units relative to the SCH23390 control)": 105}
